Reference: patent publication US20230172204A1 (BASF SE, priority 2020, published 2023)

Key:
[1] = test system: Phakopsora pachyrhizi (F129L); assay: Protective control of soybean rust on soybeans (PHAKPA P2); format: in vivo; details: soybean rust F129L; for % PHAKPA (F129L) Disease level P2 at 4 ppm: protective P2, 4 ppm; for % PHAKPA (F129L) Disease level P2 at 16 ppm: protective P2, 16 ppm
[2] = test system: Phakopsora pachyrhizi (F129L); assay: Protective control of soybean rust on soybeans (PHAKPA P6); format: in vivo; details: soybean rust F129L; for % PHAKPA (F129L) Disease level P6 at 4 ppm: protective P6, 4 ppm; for % PHAKPA (F129L) Disease level P6 at 16 ppm: protective P6, 16 ppm

Row | Compound | % PHAKPA (F129L) Disease level P2 at 4 ppm [1] [%] | % PHAKPA (F129L) Disease level P2 at 16 ppm [1] [%] | % PHAKPA (F129L) Disease level P6 at 4 ppm [2] [%] | % PHAKPA (F129L) Disease level P6 at 16 ppm [2] [%]
1 | CO/N=C(/C(=O)OC)c1cccc(C)c1CO/N=C(\CC1CC1)c1cccc(C(F)(F)F)c1 [compound 215] | 87 | 37 | 87 | 33
2 | CO/N=C(/C(=O)OC)c1cccc(C)c1CO/N=C(\C)c1ccccc1C1CC1 [compound 217] | 97 | 53 | 93 | 100
3 | CO/N=C(/C(=O)OC)c1cccc(C)c1CO/N=C(\C)c1ccccc1C(C)C [compound 218] | 100 | 87 | 100 | 100
4 | CNC(=O)/C(=N/OC)c1cccc(C)c1CO/N=C(\C)c1ccccc1C1CC1 [compound 219] | 60 | 8 | 87 | 43
5 | CNC(=O)/C(=N/OC)c1cccc(C)c1CO/N=C(\C)c1ccccc1C(C)C [compound 220] | 90 | 30 | 100 | 77
6 | CNC(=O)/C(=N/OC)c1cccc(C)c1CO/N=C(\C)c1ccccc1CC(C)C [compound 221] | 100 | 63 | 100 | 100
7 | CO/N=C(/C(=O)OC)c1cccc(C)c1CO/N=C(\C)c1ccccc1CC(F)(F)F [compound 222] | 100 | 57 | 100 | 93
8 | CNC(=O)/C(=N/OC)c1cccc(C)c1CO/N=C(\C)c1ccccc1CC(F)(F)F [compound 223] | 4 | 0 | 28 | 0
9 | CO/N=C(/C(=O)OC)c1cccc(C)c1CO/N=C(\C)c1ccccc1C#N [compound 224] | 97 | 100 | 100 | 100
10 | CNC(=O)/C(=N/OC)c1cccc(C)c1CO/N=C(\C)c1ccccc1C#N [compound 225] | 83 | 27 | 100 | 97
11 | CNC(=O)/C(=N/OC)c1cccc(C)c1CO/N=C(\C)c1cccc(OC/C(C)=N/OC)c1 [compound 226] | 28 | 3 | 57 | 7
12 | CO/N=C(\C)COc1cccc(/C(C)=N/OCc2c(C)cccc2/C(=N\OC)C(=O)OC)c1 [compound 227] | 100 | 47 | 100 | 57
13 | CNC(=O)/C(=N/OC)c1cccc(C)c1CO/N=C(\C)c1cc(Cl)cc(C(F)(F)F)c1 [compound 228] | 5 | 0 | 22 | 2
14 | CO/N=C(/C(=O)OC)c1cccc(C)c1CO/N=C(\C)c1ccc(C)c(C(F)(F)F)c1 [compound 229] | 27 | 2 | 77 | 6
15 | CNC(=O)/C(=N/OC)c1cccc(C)c1CO/N=C(\C)c1ccc(C)c(C(F)(F)F)c1 [compound 230] | 22 | 1 | 73 | 4
16 | CNC(=O)/C(=C/OC)c1cccc(C)c1CO/N=C(\C)c1cccc(C(F)(F)F)c1 [compound 232] | 100 | 73 | 100 | 83
17 | CNC(=O)/C(=N/OC)c1cccc(C)c1CO/N=C(\C)c1c(F)ccc(C(F)(F)F)c1NC [compound 233] | 100 | 57 | 87 | 27
18 | CNC(=O)/C(=N/OC)c1cccc(C)c1CO/N=C(\CC1CC1)c1cccc(C(F)(F)F)c1 [compound 234] | 53 | 18 | 53 | 15

Row | Compound | % PHAKPA (F129L) Disease level P2 at 4 ppm [1] [%] | % PHAKPA (F129L) Disease level P2 at 16 ppm [1] [%] | % PHAKPA (F129L) Disease level P6 at 4 ppm [2] [%] | % PHAKPA (F129L) Disease level P6 at 16 ppm [2] [%]
19 | CNC(=O)/C(=N/OC)c1cccc(C)c1CO/N=C(\CC(C)C)c1cccc(C(F)(F)F)c1 [compound 235] | 100 | 73 | 87 | 77
20 | CO/N=C(/C(=O)OC)c1cccc(C)c1CO/N=C(\C)c1ccccc1OC(F)(F)F [compound 236] | 97 | 77 | 97 | 100
21 | CNC(=O)/C(=N/OC)c1cccc(C)c1CO/N=C(\C)c1cc(C(F)(F)F)cc(F)c1NC [compound 238] | 100 | 53 | 100 | 77
22 | CO/N=C(/C(=O)OC)c1cccc(C)c1CO/N=C(\C)c1cc(Br)cc(F)c1F [compound 240] | 70 | 8 | 73 | 3
23 | CNC(=O)/C(=N/OC)c1cccc(C)c1CO/N=C(\C)c1cc(Br)cc(F)c1F [compound 241] | 3 | 0 | 33 | 12
24 | C#Cc1cc(F)c(F)c(/C(C)=N/OCc2c(C)cccc2/C(=N\OC)C(=O)OC)c1 [compound 242] | 87 | 10 | 87 | 20
25 | C#Cc1cc(F)c(F)c(/C(C)=N/OCc2c(C)cccc2/C(=N\OC)C(=O)NC)c1 [compound 243] | 4 | 0 | 37 | 1
26 | CNC(=O)/C(=N/OC)c1cccc(C)c1CO/N=C(\C)c1cc(Cl)ccc1C(F)(F)F [compound 245] | 28 | 8 | 13 | 2
27 | CO/N=C(/C(=O)OC)c1cccc(C)c1CO/N=C(\C)c1cc(Cl)c(F)c(Cl)c1 [compound 246] | 40 | 15 | 77 | 7
28 | CNC(=O)/C(=N/OC)c1cccc(C)c1CO/N=C(\C)c1cc(Cl)c(F)c(Cl)c1 [compound 247] | 16 | 2 | 33 | 8
29 | CNC(=O)/C(=N/OC)c1cccc(C)c1CO/N=C(\C)c1cc(F)ccc1Br [compound 248] | 33 | 2 | 30 | 2
30 | CO/N=C(/C(=O)OC)c1cccc(C)c1CO/N=C(\C)c1cc(F)ccc1C(F)(F)F [compound 249] | 87 | 37 | 90 | 43
31 | CO/N=C(/C(=O)OC)c1cccc(C)c1CO/N=C(\CC(F)(F)F)c1cccc(C(F)(F)F)c1 [compound 250] | 90 | 90 | 90 | 80
32 | CO/N=C(/C(=O)OC)c1cccc(C)c1CO/N=C(\C)c1cc(Cl)ccc1C(F)(F)F [compound 251] | 80 | 80 | 80 | 80
33 | CNC(=O)/C(=N/OC)c1cccc(C)c1CO/N=C(\C)c1ccccc1OC(F)F [compound 252] | 50 | 3 | 87 | 32
34 | CO/N=C(/C(=O)OC)c1cccc(C)c1CO/N=C(\C)c1ccccc1OC(F)F [compound 253] | 100 | 87 | 100 | 57
35 | CO/N=C(/C(=O)OC)c1cccc(C)c1CO/N=C(\C)c1cc(F)ccc1Br [compound 254] | 100 | 77 | 100 | 100
36 | CNC(=O)/C(=N/OC)c1cccc(C)c1CO/N=C(\CC(F)(F)F)c1cc(Cl)cc(Cl)c1 [compound 255] | 97 | 83 | 100 | 87
